test system: HCV 1b-Con1 replicon; assay: HCV 1b-Con1 replicon assay in the presence of 5% FBS; format: cell-based; settings: Hepatitis C virus

`COC(=O)N[C@H](C(=O)N1CCC[C@H]1c1nc2cc([C@H]3CC[C@H](c4ccc5[nH]c([C@@H]6CCCN6C(=O)[C@@H](NC(=O)OC)C(C)C)nc5c4)N3c3cc(F)c(N4[C@H](C)CCC[C@@H]4C)c(F)c3)ccc2[nH]1)C(C)C` [Example 4.6, methyl {(2S)-1-[(2S)-2-{5-[(2R,5R)-1-{4-[(2R,6S)-2,6-dimethylpiperidin-1-yl]-3,5-difluorophenyl}-5-{2-[(2S)-1-{(2S)-2-[(methoxycarbonyl)amino]-3-methylbutanoyl}pyrrolidin-2-yl]-1H-benzimidazol-5-yl}pyrrolidin-2-yl]-1H-benzimidazol-2-yl}pyrrolidin-1-yl]-3-methyl-1-oxobutan-2-yl}carbamate] and `COC(=O)NC(C(=O)N1CCC[C@H]1c1nc2cc([C@H]3CC[C@H](c4ccc5[nH]c([C@@H]6CCCN6C(=O)C(NC(=O)OC)C(C)C)nc5c4)N3c3cc(F)c(N4CCC(F)CC4)c(F)c3)ccc2[nH]1)C(C)C` (stereo partly drawn) [Example 1.6, methyl {1-[(2S)-2-{5-[(2R,5R)-1-[3,5-difluoro-4-(4-fluoropiperidin-1-yl)phenyl]-5-{2-[(2S)-1-{2-[(methoxycarbonyl)amino]-3-methylbutanoyl}pyrrolidin-2-yl]-1H-benzimidazol-5-yl}pyrrolidin-2-yl]-1H-benzimidazol-2-yl}pyrrolidin-1-yl]-3-methyl-1-oxobutan-2-yl}carbamate] cannot be ordered by EC50: less than 100 pM for the first, less than 100 pM for the second.

`COC(=O)N[C@H](C(=O)N1CCC[C@H]1c1nc2cc([C@H]3CC[C@H](c4cc5nc([C@@H]6CCCN6C(=O)[C@@H](NC(=O)OC)C(C)C)[nH]c5cc4F)N3c3cc(F)c(N4CCN(c5ncccn5)CC4)c(F)c3)c(F)cc2[nH]1)C(C)C` [Example 4.60, methyl {(2S)-1-[(2S)-2-{5-[(2R,5R)-1-{3,5-difluoro-4-[4-(pyrimidin-2-yl)piperazin-1-yl]phenyl}-5-{6-fluoro-2-[(2S)-1-{(2S)-2-[(methoxycarbonyl)amino]-3-methylbutanoyl}pyrrolidin-2-yl]-1H-benzimidazol-5-yl}pyrrolidin-2-yl]-6-fluoro-1H-benzimidazol-2-yl}pyrrolidin-1-yl]-3-methyl-1-oxobutan-2-yl}carbamate] and `COC(=O)N[C@H](C(=O)N1CCC[C@H]1c1nc2cc([C@H]3CC[C@H](c4cc5nc([C@@H]6CCCN6C(=O)[C@@H](NC(=O)OC)C(C)C)[nH]c5cc4F)N3c3cc(F)c(N4CCC(c5ccc(F)cc5)CC4)c(F)c3)c(F)cc2[nH]1)C(C)C` [Example 4.57, methyl {(2S)-1-[(2S)-2-{5-[(2R,5R)-1-{3,5-difluoro-4-[4-(4-fluorophenyl)piperidin-1-yl]phenyl}-5-{6-fluoro-2-[(2S)-1-{(2S)-2-[(methoxycarbonyl)amino]-3-methylbutanoyl}pyrrolidin-2-yl]-1H-benzimidazol-5-yl}pyrrolidin-2-yl]-6-fluoro-1H-benzimidazol-2-yl}pyrrolidin-1-yl]-3-methyl-1-oxobutan-2-yl}carbamate] cannot be ordered by EC50: less than 100 pM for the first, less than 100 pM for the second.

`COC(=O)N[C@H](C(=O)N1CCCC1c1nc2cc([C@H]3CC[C@H](c4ccc5[nH]c([C@@H]6CCCN6)nc5c4)N3c3ccc(C(C)(C)C)cc3)ccc2[nH]1)C(C)C` (stereo partly drawn) [Example 4.20, methyl [(2S)-1-(2-{5-[(2R,5R)-1-(4-tert-butylphenyl)-5-{2-[(2S)-pyrrolidin-2-yl]-1H-benzimidazol-5-yl}pyrrolidin-2-yl]-1H-benzimidazol-2-yl}pyrrolidin-1-yl)-3-methyl-1-oxobutan-2-yl]carbamate] and `COC(=O)N[C@H](C(=O)N1[C@H](c2nc3cc([C@H]4CC[C@H](c5ccc6[nH]c([C@@H]7CCC(C)(C)N7C(=O)[C@@H](NC(=O)OC)C(C)C)nc6c5)N4c4ccc(C(C)(C)C)cc4)ccc3[nH]2)CCC1(C)C)C(C)C` [Example 3.11, methyl {(2S)-1-[(5.5)-5-{5-[(2R,5R)-1-(4-tert-butylphenyl)-5-{2-[(2S)-1-{(2S)-2-[(methoxycarbonyl)amino]-3-methylbutanoyl}-5,5-dimethylpyrrolidin-2-yl]-1H-benzimidazol-5-yl}pyrrolidin-2-yl]-1H-benzimidazol-2-yl}-2,2-dimethylpyrrolidin-1-yl]-3-methyl-1-oxobutan-2-yl}carbamate] cannot be ordered by EC50: less than 100 pM for the first, less than 100 pM for the second.

`COC(=O)N[C@H](C(=O)N1CCC[C@H]1c1nc2cc([C@H]3CC[C@H](c4ccc5[nH]c([C@@H]6CCCN6C(=O)[C@@H](NC(=O)OC)C6CCCCC6)nc5c4)N3c3cc(F)c(N4CCC(c5ccccc5)CC4)c(F)c3)ccc2[nH]1)C1CCCCC1` [Example 3.22, dimethyl ({(2R,5R)-1-[3,5-difluoro-4-(4-phenylpiperidin-1-yl)phenyl]pyrrolidine-2,5-diyl}bis{1H-benzimidazole-5,2-diyl(2S)pyrrolidine-2,1-diyl [(1S)-1-cyclohexyl-2-oxoethane-2,1-diyl]})biscarbamate] and `COC(=O)N[C@H](C(=O)N1CCC[C@H]1c1nc2cc([C@H]3CC[C@H](c4ccc5[nH]c([C@@H]6CCCN6C(=O)[C@@H](NC(=O)OC)C(C)C)nc5c4)N3c3cc(F)c(N4CCC5(CC4)CC5)c(F)c3)ccc2[nH]1)C(C)C` [Example 5.11, methyl {(2S)-1-[(2S)-2-{5-[(2R,5R)-1-[4-(6-azaspiro[2.5]oct-6-yl)-3,5-difluorophenyl]-5-{2-[(2S)-1-{(2S)-2-[(methoxycarbonyl)amino]-3-methylbutanoyl}pyrrolidin-2-yl]-1H-benzimidazol-5-yl}pyrrolidin-2-yl]-1H-benzimidazol-2-yl}pyrrolidin-1-yl]-3-methyl-1-oxobutan-2-yl}carbamate] cannot be ordered by EC50: less than 100 pM for the first, less than 100 pM for the second.

Compared with `COC(=O)N[C@H](C(=O)N1CCC[C@H]1c1nc2ccc([C@H]3CC[C@H](c4ccc5nc([C@@H]6CCCN6C(=O)[C@@H](NC(=O)OC)C(C)C)[nH]c5c4)N3c3ccc(OC4CCCC4)c(F)c3)cc2[nH]1)C(C)C` [Example 4.1, methyl {(2S)-1-[(2S)-2-{6-[(2R,5R)-1-[4-(cyclopentyloxy)-3-fluorophenyl]-5-{2-[(2S)-1-{(2S)-2-[(methoxycarbonyl)amino]-3-methylbutanoyl}pyrrolidin-2-yl]-1H-benzimidazol-6-yl}pyrrolidin-2-yl]-1H-benzimidazol-2-yl}pyrrolidin-1-yl]-3-methyl-1-oxobutan-2-yl}carbamate], `COC(=O)N[C@H](C(=O)N1CCC[C@H]1c1nc2cc([C@H]3CC[C@H](c4ccc5[nH]c([C@@H]6CCCN6C(=O)[C@@H](NC(=O)OC)C(C)C)nc5c4)N3c3ccnc(F)c3)ccc2[nH]1)C(C)C` [Example 1.4, methyl {(2S)-1-[(2S)-2-{5-[(2R,5R)-1-(2-fluoropyridin-4-yl)-5-{2-[(2S)-1-{(2S)-2-[(methoxycarbonyl)amino]-3-methylbutanoyl}pyrrolidin-2-yl]-1H-benzimidazol-5-yl}pyrrolidin-2-yl]-1H-benzimidazol-2-yl}pyrrolidin-1-yl]-3-methyl-1-oxobutan-2-yl}carbamate] is higher in EC50: less than 100 pM for the first, 100 to 1000 pM for the second. The first is the more potent here.

`COC(=O)N[C@H](C(=O)N1CCC[C@H]1c1nc2cc([C@H]3CC[C@H](c4cc5nc([C@@H]6CCCN6C(=O)[C@@H](NC(=O)OC)[C@@H](C)OC(C)(C)C)[nH]c5cc4F)N3c3cc(F)c(N4CCC(C(C)(C)C)CC4)c(F)c3)c(F)cc2[nH]1)[C@@H](C)OC(C)(C)C` [Example 4.29, methyl {(2S,3R)-3-tert-butoxy-1-[(2S)-2-(5-{(2R,5R)-5-{2-[(2S)-1-{(2S,3R)-3-tert-butoxy-2-[(methoxycarbonyl)amino]butanoyl}pyrrolidin-2-yl]-6-fluoro-1H-benzimidazol-5-yl}-1-[4-(4-tert-butylpiperidin-1-yl)-3,5-difluorophenyl]pyrrolidin-2-yl}-6-fluoro-1H-benzimidazol-2-yl)pyrrolidin-1-yl]-1-oxobutan-2-yl}carbamate] and `COC(=O)N[C@H](C(=O)N1CCC[C@H]1c1nc2cc([C@H]3CC[C@H](c4cc5nc([C@@H]6CCCN6C(=O)[C@@H](NC(=O)OC)[C@@H](C)OC)[nH]c5cc4F)N3c3cc(F)c(N4CCN(c5c(F)cccc5F)CC4)c(F)c3)c(F)cc2[nH]1)[C@@H](C)OC` [Example 3.48, methyl {(2S,3R)-1-[(2S)-2-{5-[(2R,5R)-1-{4-[4-(2,6-difluorophenyl)piperazin-1-yl]-3,5-difluorophenyl}-5-(6-fluoro-2-{(2S)-1-[N-(methoxycarbonyl)-O-methyl-L-threonyl]pyrrolidin-2-yl}-1H-benzimidazol-5-yl)pyrrolidin-2-yl]-6-fluoro-1H-benzimidazol-2-yl}pyrrolidin-1-yl]-3-methoxy-1-oxobutan-2-yl}carbamate] cannot be ordered by EC50: less than 100 pM for the first, less than 100 pM for the second.

`COC(=O)N[C@H](C(=O)N1C[C@H](F)C[C@H]1c1nc2cc([C@H]3CC[C@H](c4ccc5[nH]c([C@@H]6C[C@@H](F)CN6C(=O)[C@@H](NC(=O)OC)C(C)C)nc5c4)N3c3cc(F)c(N4CCCCC4)c(F)c3)ccc2[nH]1)C(C)C` [Example 4.59, methyl {(2S)-1-[(2S,4R)-2-{5-[(2R,5R)-1-[3,5-difluoro-4-(piperidin-1-yl)phenyl]-5-{2-[(2S,4R)-4-fluoro-1-{(2S)-2-[(methoxycarbonyl)amino]-3-methylbutanoyl}pyrrolidin-2-yl]-1H-benzimidazol-5-yl}pyrrolidin-2-yl]-1H-benzimidazol-2-yl}-4-fluoropyrrolidin-1-yl]-3-methyl-1-oxobutan-2-yl}carbamate] and `COC(=O)N[C@H](C(=O)N1CCC[C@H]1c1nc2cc([C@H]3CC[C@H](c4cc5nc([C@@H]6CCCN6C(=O)[C@@H](NC(=O)OC)C(C)C)[nH]c5cc4F)N3c3cc(F)c(N4CCC(C(F)(c5ccccc5)c5ccccc5)CC4)c(F)c3)c(F)cc2[nH]1)C(C)C` [Example 4.37, methyl {(2S)-1-[(2S)-2-{5-[(2R,5R)-1-(3,5-difluoro-4-{4-[fluoro(diphenyl)methyl]piperidin-1-yl}phenyl)-5-{6-fluoro-2-[(2S)-1-{(2S)-2-[(methoxycarbonyl)amino]-3-methylbutanoyl}pyrrolidin-2-yl]-1H-benzimidazol-5-yl}pyrrolidin-2-yl]-6-fluoro-1H-benzimidazol-2-yl}pyrrolidin-1-yl]-3-methyl-1-oxobutan-2-yl}carbamate] cannot be ordered by EC50: less than 100 pM for the first, less than 100 pM for the second.
